# Assay results published in patent US20110294722A1, “ANTIMICROBIAL PEPTIDES” (priority 2008, published 2011).
# No end group written: not given here.
# Experiments:
# Type in all cases: cell-based
# [1] = test system: Pseudomonas syringae pv. syringae; conditions: Pseudomonas syringae pv. syringae; for MIC (>90% inhibition): 1-2 days at 25° C.; for LC (lethal concentration, 100% inhibition): at least 4 days of incubation
# Description: (§1) In-vitro inhibition assays were performed in sterile flat-bottom 96-well plates (Greiner bio-one, Frickenhausen). Antimicrobial peptides were dissolved in 0.01% acetic acid containing 0.2% BSA (500 μg/ml), filter sterilized and stored at −20° C. For inhibition assays dilutions of peptides ranging from 5 to 200 μg/ml were prepared and 10 μl (antibacterial assay) or 20 (antifungal assay) of each concentration was loaded per well.
# (§2) Bacteria colonies from overnight agar plate cultures were resuspended into 5 ml LB-medium or HPG-medium (OD600 nm=0.08-0.1) and diluted into LB-medium/HPG-medium (1:100). 90 μl of this suspension containing about 10^5-10^6 CFU/ml of tested bacteria were added to each well resulting in final peptide concentrations of 0, 0.5, 1, 2, 5, 10, and 20 μg/ml. […] The lowest concentration, in which there is no observable growth (>90% inhibition) is referred to as minimal inhibitory concentration (MIC). […] For each peptide concentration two identical inhibition assays were performed.
# [2] = test system: Pectobacterium carotovorum; conditions: Pectobacterium carotovorum; for MIC (>90% inhibition): 1-2 days at 25° C.; for LC (lethal concentration, 100% inhibition): at least 4 days of incubation
# Description: as §1, §2
# Pseudomonas corrugata = conditions: Pseudomonas corrugata; for MIC (>90% inhibition): 1-2 days at 25° C.; for LC (lethal concentration, 100% inhibition): at least 4 days of incubation
# Description: as §1, §2
# [3] = test system: Pseudomonas syringae pv. tomato; conditions: Pseudomonas syringae pv. tomato; for MIC (>90% inhibition): 1-2 days at 25° C.; for LC (lethal concentration, 100% inhibition): at least 4 days of incubation
# Description: as §1, §2
# Xanthomonas vesicatoria = assay: In-vitro inhibition assay (MIC and LC), Example 3; conditions: for MIC (>90% inhibition): 1-2 days at 25° C.; for LC (lethal concentration, 100% inhibition): at least 4 days of incubation
# Description: as §1, §2
# [4] = test system: Clavibacter michiganensis; assay: In-vitro inhibition assay (MIC and LC), Example 3; conditions: for MIC (>90% inhibition): 1-2 days at 25° C.; for LC (lethal concentration, 100% inhibition): at least 4 days of incubation
# Description: as §1, §2
Substance,MIC (>90% inhibition) [1],"LC (lethal concentration, 100% inhibition) [1]",MIC (>90% inhibition) [2],"LC (lethal concentration, 100% inhibition) [2]",MIC (>90% inhibition) (Pseudomonas corrugata),"LC (lethal concentration, 100% inhibition) (Pseudomonas corrugata)",MIC (>90% inhibition) [3],"LC (lethal concentration, 100% inhibition) [3]",MIC (>90% inhibition) (Xanthomonas vesicatoria),"LC (lethal concentration, 100% inhibition) (Xanthomonas vesicatoria)",MIC (>90% inhibition) [4],"LC (lethal concentration, 100% inhibition) [4]"
RKKKKKIIKKLI-NH2 [SP1-21],0.5 µg/mL,2.5 µg/mL,>10/>10 μg/ml,>10/>10 μg/ml,2.5 µg/mL,5.0 µg/mL,2.5 µg/mL,5.0 µg/mL,>10/>10 μg/ml,>10/>10 μg/ml,>10/>10 μg/ml,>10/>10 μg/ml
KRKKLLKRLL-NH2 [SP1-15],0.1 µg/mL,1.0 µg/mL,>10/>10 μg/ml,>10/>10 μg/ml,<0.1/<0.1 μg/ml,<0.1/<0.1 μg/ml,1.0/1.0 μg/ml,1.0/1.0 μg/ml,5.0/5.0 μg/ml,5.0/5.0 μg/ml,5.0/5.0 μg/ml,5.0/5.0 μg/ml
RKKRKKLLKRLI-NH2 [SP1-20],0.25 µg/mL,10 µg/mL,>10/>10 μg/ml,>10/>10 μg/ml,0.5/0.5 μg/ml,0.5/0.5 μg/ml,10/>10 μg/ml,10/>10 μg/ml,10/>10 μg/ml,10/>10 μg/ml,5.0 µg/mL,10 µg/mL
RKKKVKLLKRLV-NH2 [SP1-3],0.25 µg/mL,1.0 µg/mL,>10/>10 μg/ml,>10/>10 μg/ml,2.5/2.5 μg/ml,2.5/2.5 μg/ml,5.0 µg/mL,10 µg/mL,>10/>10 μg/ml,>10/>10 μg/ml,>10/>10 μg/ml,>10/>10 μg/ml
RKKKFKFFKRLF-NH2 [SP1-12],0.1 µg/mL,0.5 µg/mL,>10/>10 μg/ml,>10/>10 μg/ml,0.25 µg/mL,0.5 µg/mL,>10/>10 μg/ml,>10/>10 μg/ml,0.5 µg/mL,2.5 µg/mL,0.5/0.5 μg/ml,0.5/0.5 μg/ml
RKKKAKIIKKII-NH2 [SP1-10],1.0 µg/mL,5.0 µg/mL,>10/>10 μg/ml,>10/>10 μg/ml,10/10 μg/ml,10/10 μg/ml,>10/>10 μg/ml,>10/>10 μg/ml,>10/>10 μg/ml,>10/>10 μg/ml,>10/>10 μg/ml,>10/>10 μg/ml
RKKRLRVVRRLV-NH2 [SP1-5],>10/>10 μg/ml,>10/>10 μg/ml,>10/>10 μg/ml,>10/>10 μg/ml,5.0 µg/mL,,1.0 µg/mL,2.5 µg/mL,>10/>10 μg/ml,>10/>10 μg/ml,>10/>10 μg/ml,>10/>10 μg/ml
RKKRLKVVKRLV-NH2 [SP1-4],5.0 µg/mL,> 10 µg/mL,>10/>10 μg/ml,>10/>10 μg/ml,>10/>10 μg/ml,>10/>10 μg/ml,2.5 µg/mL,> 10 µg/mL,>10/>10 μg/ml,>10/>10 μg/ml,>10/>10 μg/ml,>10/>10 μg/ml
